In patent US20210308101A1, “METHODS OF TREATING FIBROMYALGIA” (Aptinyx Inc., priority 2019, published 2021):

Key:
[1] = system: subjects with fibromyalgia; assay: Hospital Anxiety and Depression Scale (HADS); format: in vivo, human; conditions: Weeks 4 and 6
Source text: As used herein, “HADS” is Hospital Anxiety and Depression Scale. The HADS is a self-reported screening tool for anxiety and depression in non-psychiatric clinical populations. The scale consists of 14 items (7 each for anxiety and depression), each rated on a 4-point scale ranging from 0 to 3 (i.e. 0=not at all; 3=most of the time). The categorical responses are slightly different for some of the questions, but the numeric scores remained the same from 0 to 3. Responses were based on the relative frequency of symptoms over the preceding week. […] The individual imputed missing scores used the specific subscale mean score and were rounded off to the nearest whole number. If an individual subscale score was missing 4 or more items, then that subscale score was set to missing. A total score adding the anxiety and depression subscale scores for HADS was not calculated. Possible scores range from 0 to 21 for each subscale. […]
The HADS assessment was collected and analyzed at visits Screening, Day 1, Week 2, Week 4, Week 6, and Follow-up (Week 7). […] Additionally, the treatment group comparisons were analyzed using the paired t-test and nonparametric Wilcoxon signed-rank test.
The 4 interpreted categorical values for each subscale were summarized in a frequency distribution table. All HADS data collected and the calculated subscale scores at each visit were presented in a subject listing.

[2] = system: visual stimulus-evoked brain activation; assay: fMRI of visual stimulation, BOLD activations; format: in vivo, human; conditions: either dose relative to baseline or placebo
Source text: As used herein, “Functional Magnetic Resonance Imaging of Evoked Pain and Visual Stimulation” refers to the following procedure. During evoked pain and visual stimulation fMRI paradigms, participants were lying in the scanner as they received either pressure stimulation to their calf muscle or they experienced an unpleasant visual stimulus. For both pain and visual stimulation, whole-brain Blood Oxygenation Level Dependent (BOLD) functional images were acquired.
Neural mechanisms of this multimodal hypersensitivity were assessed using fMRI. Whole brain BOLD functional images were acquired. The visual stimulation task was 3 minutes in duration and consisted of 2 different visual stimuli presented in a block design. The control stimulus was a fixed crosshair centered in the middle of a solid color background, whereas the experimental stimulus was a flashing annulus checkerboard (8 Hz frequency) (see below figure of example of visual stimuli). […]
Several analyses were conducted with the fMRI resting state and task data. Results were assessed by: 1) a primary analysis, where a finding was deemed significant with a corrected cluster level p<0.05, derived from an uncorrected voxel-wise p<0.001, and 2) an exploratory analysis, where a finding was deemed significant with an uncorrected voxel-wise p<0.005 and having a cluster greater than or equal to 80 contiguous voxels. […]

## CC(C)C(=O)N1CCC[C@]12CN([C@H](C(N)=O)[C@@H](C)O)C2=O [NYX-2925, (2S, 3R)-3-hydroxy-2-((R)-5-isobutyryl-1-oxo-2,5-diazaspiro[3.4]octan-2-yl)butanamide]
[1]
  HADS Total Anxiety score, mean changes from Week 2 (placebo): No statistically significant mean changes
  HADS Total Depression score, mean changes from Week 2 (placebo): No statistically significant mean changes
[2]
  BOLD activation, visual task: No significant or marginal changes in BOLD activation
